# Measurements published in PubChem BioAssay (NCI).
#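 Cells were grown in 96-well plates and exposed to each compound for 48 hours at five concentrations; endpoints were interpolated linearly between bracketing concentrations, or set to the highest concentration if not reached. The concentration for 50% growth inhibition is given as GI50. TGI is the concentration that stops growth completely.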
# Tests used:
# Experiment in all cases: DTP human tumour cell line panel, 48 h
# RXF 393 renal = test system: RXF 393 renal
# KM12 colon = test system: KM12 colon
# M14 melanoma = test system: M14 melanoma
# DU-145 prostate = test system: DU-145 prostate
# A549 NSCLC = test system: A549 NSCLC
# OVCAR-3 ovarian = test system: OVCAR-3 ovarian
# T-47D breast = test system: T-47D breast
# SK-MEL-2 melanoma = test system: SK-MEL-2 melanoma
# ACHN renal = test system: ACHN renal
# MCF7 breast = test system: MCF7 breast
Compound,TGI (RXF 393 renal) [µM],TGI (KM12 colon) [µM],TGI (M14 melanoma) [µM],TGI (DU-145 prostate) [µM],TGI (A549 NSCLC) [µM],TGI (OVCAR-3 ovarian) [µM],TGI (T-47D breast) [µM],TGI (SK-MEL-2 melanoma) [µM],TGI (ACHN renal) [µM],TGI (MCF7 breast) [µM],GI50 (RXF 393 renal) [µM],GI50 (KM12 colon) [µM],GI50 (MCF7 breast) [µM],GI50 (M14 melanoma) [µM],GI50 (DU-145 prostate) [µM],GI50 (A549 NSCLC) [µM],GI50 (OVCAR-3 ovarian) [µM],GI50 (SK-MEL-2 melanoma) [µM],GI50 (ACHN renal) [µM],GI50 (T-47D breast) [µM]
C[C@]12CC[C@H]3[C@@H](CC[C@]4(O)C[C@@H](O)CC[C@]34CO)[C@@]1(O)CC[C@@H]2C1=CC(=O)OC1,1.58,17,14.5,2.24,1.74,3.21,13.9,8.23,7.08,,,,,,,,,,,
O=C(CSc1nc(-c2ccccc2)c(-c2ccccc2)[nH]1)NNC(=S)Nc1ccccc1,,> 100,> 100,,> 100,> 100,,> 100,> 100,,,,,,,,,,,
CCn1c(=O)c2c3ccc(OC(C)=O)cc3[nH]c2c2ccc(OC(C)=O)cc21,> 100,> 100,> 100,49.1,> 100,> 100,93.9,,89.6,> 100,,,,,,,,,,
CC(/C=C/NNC1=NC(c2ccccc2)C(c2ccccc2)=NN1)Sc1ccccc1N (configuration not stated),,21.8,10.6,,28.7,22,,21.2,22.2,,,,,,,,,,,
COC(=O)c1ccc(C(=O)OC)c2nc3cc(C)ccc3nc12,,> 100,> 100,,> 100,> 100,,> 100,> 100,,,,,,,,,,,
COC(=O)c1ccc(CN2C(=O)C(Cl)=C(Nc3ccc(OC)c(Cl)c3)C2=O)cc1,26.1,> 50,> 50,> 50,> 50,> 50,,> 50,18.4,> 50,11.2,5.42,12.6,32.6,21.8,26.2,21.6,20.5,8.44,
COc1cc2c3c(ncc2c(OC)c1OC)-c1cc2c(cc1C3)OCO2,,> 100,> 100,> 100,> 100,,89.8,45.3,47.2,59,,> 100,15.6,> 100,26.9,82.9,,11.7,20.7,26.2
CC1=C(/C=C/C(C)=C/C=C/C(C)=C/C=C/C=C(C)/C=C/C=C(C)/C=C/C2=C(C)C(=O)C(O)CC2(C)C)C(C)(C)CC(O)C1=O (configuration not stated),> 100,> 100,> 100,,> 100,> 100,,> 100,> 100,,,,,,,,,,,
C/C=C(/C)c1cnc(CC(C)C)c(=O)[nH]1,> 100,> 100,,> 100,> 100,> 100,> 100,> 100,> 100,,,,,,,,,,,
O=C(O)Cc1ccccc1CCc1ccccc1Cl,> 100,> 100,> 100,,> 100,> 100,,91.7,,,,,,,,,,,,
COC(=O)c1cc(-c2ccc(OC)cc2)[nH]c1N/N=C/c1c(Cl)cccc1Cl,0.332,6.75,1.1,0.831,4.48,,> 31.8,8.2,4.42,0.887,0.142,0.141,0.107,0.196,0.229,0.361,,0.377,0.316,0.505
COC(=O)C(=O)C(C(=O)C(N)=O)c1nc2ccc(C(=O)c3ccccc3)cc2[nH]c1=O (configuration not stated),> 100,> 100,> 100,,> 100,> 100,> 100,> 100,> 100,> 100,,,,,,,,,,
COC(=O)[C@@]1(C)CCC[C@]2(C(=O)O)C3Cc4occc4[C@H](C)[C@@H]3CCC21 (some centres not stated),> 100,> 100,> 100,> 100,> 100,> 100,> 100,> 100,> 100,,,,,,,,,,,
COc1ccc2ccccc2c1CN1CCOCCOCCN(Cc2c(OC)ccc3ccccc23)CCOCCOCC1,> 100,> 100,32.5,,> 100,> 100,,97.4,> 100,,,,,,,,,,,
CCCCN(CCCC)CCc1c(C)cc(C)c(CCN(CCCC)CCCC)c1O,7.23,21.2,20.8,> 100,> 100,,,5.78,> 100,8.13,2.4,3.2,2.39,3.15,3.76,3,,2.24,3.47,
COc1cc(/C=C2\CC3C4CC=C5C[C@@H](O)CC[C@]5(C)C4CC[C@]3(C)C2=O)ccc1OCCCn1ccnc1 (some centres not stated),34.8,54.8,33.3,29.6,56.4,39.4,> 100,,24.7,37.7,12.6,25.2,18.8,15.2,15.4,17.1,19.1,,11.2,29.3
CC1(C)C(=O)C=CC2(C)C1CC(O)C1(C)C2CCC2(C)C(c3ccoc3)OC(=O)C3OC321 (configuration not stated),33.6,28.7,> 100,51.4,69.8,36,,35.1,30.3,> 100,,,,,,,,,,
Clc1ccc2c(c1)[nH]c1c2nc2sccn21,> 100,> 100,> 100,,> 100,> 100,,> 100,> 100,,,,,,,,,,,
CCC[CH2][Sn]1([CH2]CCC)[O]C(=O)c2ccc(N)cc2[O]1,0.427,2.59,2.18,2.52,7.4,2.52,,0.913,1.92,0.738,0.112,1.24,0.152,0.576,1.26,2.62,1.24,0.141,0.655,
